Laboratory results as given in patent publication US9545447B2, “Polymer-drug systems” (THE TEXAS A&M UNIVERSITY SYSTEM, priority 2013, dated 2017).
Like-named read-outs stand apart in the source and are kept apart here.

Legend:
[1] = system: KB cells, a human nasal pharyngeal cancer cell line; test: Cell viability (WST-1), KB cells; type: cell-based; settings: Table 1, 72 h, PTX as free PTX
Protocol: Polymer paclitaxel and free paclitaxel were tested in KB cells, a human nasal pharyngeal cancer cell line and A549 cells, a human lung carcinoma cell line. KB and A549 cells (ATCC, Manassas, Va.) were maintained in monolayer cultures in folate free RPMI (Life Technologies, Carlsbad, Calif.) and F-12K media (Mediatech, Manassas, Va.) respectively, supplemented with 10% fetal bovine serum and penicillin/streptomycin antibiotics. For screening purposes 2,500 cells in 100 μL of complete cell culture media were plated in a 96 well plate (Corning, Lowell, Mass.) in triplicates and were then incubated for 24 h in a humidified CO2 cell culture incubator maintained at 37° C. Serial dilutions of polymer-paclitaxel conjugates and paclitaxel were prepared in PBS and added to cells in a volume of 10 μL. The cells were either incubated for a short period of 2 h or for longer continuous incubation of 72 h. After 2 h incubation, the media was replaced with 110 μL of fresh complete RPMI. Cell viability was assessed by using a colorimetric WST-1 cell proliferation kit (Roche, Indianapolis, Ind.) and following manufacturer's instructions. Cell viability was calculated as a percentage of the control cells treated with no drugs. […]

[2] = Saturate concentration of PTX in PBS buffer by UV; type: physicochemical
Protocol: The saturate concentration is around 1.7 ug/mL. PTX concentrations as low as 6.25 ng/mL were detected.

[3] = system: RAW 264.7 mouse macrophages; test: Cytotoxicity assay (MTS), RAW 264.7; type: cell-based
Protocol: (§1) Human ovarian adenocarcinoma cells (OVCAR-3) (5×10^3 cells/well) and RAW 264.7 mouse macrophages (2×10^4 cells/well) were plated in 96-well plate in RPMI-1640 medium and Dulbecco's Modified Eagle's Medium (DMEM) (20% and 10% fetal bovine serum, for the OVCAR-3 and RAW 264.7, respectively and 1% penicillin/streptomycin). […] The paclitaxel conjugate was prepared as described previously, and the Taxol®-mimicking formulation was prepared in similar composition to Taxol® (i.e. Cremophor-EL and ethanol, 1:1 v/v). For each well, 20 μL of every formulation was added to 100 μL of the medium. The cells were incubated with the formulations for 72 h and washed once with phosphate-buffered saline (PBS) and 100 μL of the complete medium was added to the cells. 20 μL of the MTS combined reagent was added to each well (Cell Titer 96® Aqueous Non-Radioactive Cell Proliferation Assay, Promega Co., Madison, Wis.). […] Absorbance was measured at 490 nm using SpectraMax M5 (Molecular Devices Co., Sunnyvale, Calif.). The cell viability was calculated based on the relative absorbance to the control untreated cells. The IC50 values were calculated using GraphPad Prism four-parameter fit, considering the 0% and 100% viabilities correspond to the medium control (no cells) and cells-treated with PBS, respectively.

[4] = system: Human ovarian adenocarcinoma cells (OVCAR-3); test: Cytotoxicity assay (MTS), OVCAR-3; type: cell-based
Protocol: as §1

- IC50 [1]: 0.0044 µM
- saturate concentration of PTX [2]: around 1.7 ug/mL
Structure (SMILES): CC(=O)O[C@H]1C(=O)[C@@]2(C)[C@H]([C@H](OC(=O)c3ccccc3)[C@]3(O)C[C@H](OC(=O)[C@H](O)[C@@H](NC(=O)c4ccccc4)c4ccccc4)C(C)=C1C3(C)C)[C@]1(OC(C)=O)CO[C@@H]1C[C@@H]2O [PTX, paclitaxel]
- IC50 ([3]; RAW264.7, Table 1, 72 h, PTX as Taxol®-mimicking formulation (Cremophor-EL and ethanol, 1:1 v/v), read-out: IC50 (μM) RAW 264.7): 0.044 µM
- IC50 ([3]; RAW264.7, Table 2, 72 hours, PTX as Taxol-mimicking formulation, read-out: IC50 (μM) in RAW 264.7): 0.04 µM
- IC50 ([4]; Table 1, 72 h, PTX as Taxol®-mimicking formulation (Cremophor-EL and ethanol, 1:1 v/v), read-out: IC50 (μM) OVCAR-3): 0.007 µM
- IC50 ([4]; Table 2, 72 hours, PTX as Taxol-mimicking formulation, read-out: IC50 (μM)in OVCAR-3): 0.007 µM
